Reference: patent publication US20220175756A1, “APPLICATION OF COMBINATION OF QUINOLINE DERIVATIVE AND IMMUNOMODULATOR IN PREPARATION OF ANTITUMOR DRUGS” (CHONGQING PHARMACEUTICAL INDUSTRIAL RESEARCH INSTITUTE CO., …, priority 2019, published 2022)

System: CT26 mouse colon carcinoma cell strain
Experiment: In vivo anti-tumor activity in mouse CT26 colon tumor model
Experimental: The experimental purposes was to investigate the in vivo anti-tumor effect of the combination of the test compound with a mouse anti-PD-1 antibody against the mouse colon cancer in CT26 tumor model.
Female Balb/c mice were subcutaneously inoculated with CT26 mouse colon carcinoma cell strain, and randomly grouped based on their body weight, after inoculation. And, they were administered as follows.
To the first group (a control group), the administration was started in the afternoon of the day of vaccination in a way that vehicle 1 (10% DMSO+10% Solutol+80% DDH2O) was administered intragastrically twice a day at a dosage of 0.1 mL/10 g body weight each time, and when the tumor had grown to a volume of about 60 mm^3 after the inoculation, it started to do administration in a way that vehicle 2 (DPBS) was given twice a week through intraperitoneal injection at a dosage of 0.1 mL/10 g body weight at each time.
To the second group, when the tumor had grown to a volume of about 60 mm^3 after the inoculation, it started to do administration in a way that anti-mouse PD-1 antibody (RMP1-14, supplied by BioXcell) was given through intraperitoneal injection twice a week at a dosage of 3 mg/kg body weight at each time. […]
During the experiment, the mice were weighed three times a week, and after the tumor formed, the tumor volume was measured three times a week at each time when the body weight was measured, and calculated following the equation: length×width^2/2. Tumor proliferation rate was calculated following the equation: Tumor proliferation rate=Tumor volume in the treatment group/Tumor volume in the control group×100%.
The differences between groups were statistically analyzed by Student's t-test, and p<0.05 was considered to be a significant difference.

COc1cc2nccc(Oc3ccc(NC(=O)NC4CC4)c(Cl)c3F)c2cc1C(N)=O [Example 1]
Tumor proliferation rate (day 25, Example 1 10 mg/kg intragastrically once a day in combination with anti-mouse PD-1 antibody RMP1-14 3 mg/kg i.p. twice a week, female Balb/c mice, p<0.01): 15.38%
Anti-tumor activity in combination with PD-1 antibody (in words) (mouse CT26 tumor model, combination with PD-1 antibody): significant anti-tumor activity
Effect on anti-tumor effect of PD-1 antibody (in words) (tumor volumes on day 25, combination group vs single antibody group, p<0.05): significantly enhanced anti-tumor effect on PD-1 antibody
